Patent US11865110B2, “Thrombin inhibitors, formulations, and uses thereof” (VERSEON INTERNATIONAL CORPORATION, priority 2018, dated 2024)

Columns and labels:
[1] = target: T1, thrombin (Homo sapiens, UniProt P00734); assay: Human Thrombin Generation Assay (TGA); type: biochemical; conditions: concentration that reduces endogenous thrombin potential AUC by 50%; human plasma; read-out: ETP EC50
T1 construct: from tissue; host or cells: human plasma (thrombin generated in situ by tissue factor, phospholipids and CaCl2)
Protocol: Results for the human thrombin generation assay (TGA; not to be confused with “thermogravimetric analysis” which is used elsewhere and carries the same acronym. One of skill in the art will appreciate which meaning is intended based on context of the surrounding technical information.) were generated as follows. In a 96-well plate, 4 μL of 100, 33.3, 11.1, 3.7, 1.23, 0.41, 0.137, and 0.046 μM solutions of the test compounds in DMSO were added to sequential wells filled with 68 μL of a “TGA Working Solution.” See description of this solution as well as other relevant solutions below. The plate was incubated at room temperature for 10 minutes, whereupon 8 μL of warm “Substrate Solution” was added to each well, resulting in a 500 μM concentration of the substrate, Z-GGR-AMC (Z-Gly-Gly-Arg-7-amino-4-methylcoumarin·HCl), in each well. Fluorescence intensity data (Ex/Em 380/460 nm) collection began immediately using a Cytation™ or Synergy™ H1 96-well plate reader set to incubate the plate at 37° C. over the data collection time of 90 minutes following double-orbital shaking for a period of 4 seconds. Test compounds were measured parallel to blanks and controls, as well as to wells of the substrate in DMSO at various concentrations (2.50, 0.833, 0.278, 0.093 mM) in the buffers to generate a standard fluorescence curve. Data values were computed automatically, including the ETP EC50 value of the AUC, which is the concentration of the compound that reduces endogenous thrombin potential AUC by 50%.
The various solutions were prepared as follows. A HEPES/NaCl Assay buffer was made by combining 7.5 mL of 5M NaCl, 1.19 g 4-(2-hydroxyethyl)piperazine-1-ethanesulfonic acid (HEPES) and 230 mL of water. An “Innovin Master Solution” was made by combining 20 μL of Siemens Dade Innovin recombinant tissue factor and thromboplastin with 50 μL of 0.5 mM phospholipid-TGT acquired from DiaPharma® in 450 μL of the above HEPES/NaCl Assay buffer. This solution was then vortexed for a few seconds. Next the “Substrate Master Solution” was made by adding 3.2 mL DMSO to 100 mg of Z-GGR-AMC (Z-Gly-Gly-Arg-7-amino-4-methylcoumarin·HCl) and vortexing in a polystyrene tube. This solution was stored at −20° C. A “TGA Working Solution” was prepared by adding 6.2 mL of human plasma, 50 μL of the Innovin Master Solution, and 80 μL of phospholipids to 2.6 mL of HEPES/NaCl Assay buffer. A “Substrate Working Solution” was made immediately before addition to the assay plate by adding 200 μL of the above “Substrate Master Solution” to a pre-warmed (37° C.) mixture of 1.46 mL of HEPES/NaCl Assay buffer and 340 μL of 1M CaCl2).
For additional description of this assay, please see Robert, S. et al. ‘Is thrombin generation the new rapid, reliable and relevant pharmacological tool for the development of anticoagulant drugs?’2009, Pharmacol Res 59:160-6 as well as Hemker, H. C. et al. ‘Calibrated automated thrombin generation measurement in clotting plasma.’ 2003, Pathophysiol Haemost Thromb 33:4-15.

[2] = Mouse plasma stability; type: in vitro ADME, mouse (CD-1); conditions: CD-1 mouse plasma, 37° C., time points to 160 min; read-out: Mouse Plasma Stability t1/2
Protocol: Alongside a positive control of propantheline bromide, 8 μL of a 1 mM solution of each test compound in DMSO was placed in two wells of a Nunc™ 96-well plate called the “dilution plate.” To one well, 392 μL of HyClone™ water was added and mixed by a pipette. To the other well, 392 μL of mouse or rat plasma stabilized with sodium citrate purchased from Innovative Research was added and mixed by a pipette. The dilution plate was kept covered to reduce solvent evaporation and heated in an incubator at 37° C. At each of the time points enumerated below, the plate was removed from the incubator and 50 μL of the test compound/water or test compound/plasma solutions were transferred to a unique, corresponding well in a “quench plate” (96-well Costar® plate) that contains 150 μL of a quench solution that contains an internal standard (20 uM diclofenac in acetonitrile). The dilution plate was then returned to the incubator. This process was performed at 0, 5, 10, 20, 40, 80, and 160 minutes from the original mixing of the test compounds with the water or plasma in the dilution plate. After the quenching of the 160-minute time point, the quench plate was then centrifuged at 4° C. at 1000×g for 10 minutes. 100 μL of the supernatant of each well were then transferred to corresponding unique wells in a “read plate” (96-well Costar® plate) that were filled with 100 μL of HyClone™ water. The plate was then sealed and analyzed via UHPLC using a 10-μL sample injection through a Phenomenex® Kinetex column pre-equilibrated with the loading buffer (95:5 water:acetonitrile). The parameters were as follows. Mobile Phase A: water, 0.025% formic acid. Mobile Phase B: acetonitrile, 0.025% formic acid. Flow Rate: 0.5 mL/min. […] Half-life (t1/2) times were computed by using a chi-square analysis to fit the peak areas to an exponential decay model for compound concentration as a function of time.

[3] = Mouse liver microsome stability; type: in vitro ADME, mouse (CD-1); conditions: pH 7.4; CD-1 mouse liver microsomes 0.5 mg/mL, NADPH, 37° C.; lower measurable bound 5
Protocol: In a 96-well Nunc™ plate, 1.5 μL of a 200 μM solution of the test compound in DMSO were placed in a well. This plate, the “Reaction Plate,” was then warmed to 37° C. in an oven. In a second 96-well Nunc™ plate, the “Quench Plate,” six wells were filled with 180 μL of an internal standard quench solution composed of 100 nM diclofenac in acetonitrile. These six wells correspond to the six time points for data collection: 0, 0.5, 5, 15, 30, and 60 minutes. “Assay Buffer” was prepared by combining 6.96 g potassium phosphate, dibasic, 1.36 g potassium phosphate, monobasic, and 0.30 g of magnesium chloride hexahydrate, then diluting to a final concentration of 500 mL in water and adjusting to pH 7.4, as needed. Assay Buffer was warmed to 37° C., and 12 mL were added to a 10-mg vial of NADPH. Then 300 μL of a 20 mg/mL liver microsome suspension were added to yield a 0.5 mg/mL liver microsome suspension. 300 μL of this liver microsome suspension was then added to the test compound solution in the Reaction Plate and mixed thoroughly with a pipette tip. At each time point, 30 μL of this mixture was transferred to the corresponding well of the Quench Plate. In between time points, the Reaction Plate was kept sealed and warmed in an incubator at 37° C. When the last time point had been completed, the quench plate was centrifuged at 4° C. at 1000×g for 10 minutes. Afterwards, 50 μL of the supernatant of each well was transferred to unique, corresponding wells of a 96-well Costar® plate, the “Analysis Plate,” filled with 150 μL of 50:50 acetonitrile:HyClone™ water. The Analysis Plate was then sealed with a pre-slit plate seal before analysis via an appropriate LCMS method with a 10 μL injection. The abstracted AUC data were then automatically plotted to calculate intrinsic clearance in μL/min/mg. This experiment was run alongside a positive and negative control. Due to the parameters of this procedure, one of skill in the art will appreciate that this assay has a lower measurable bound of 5 μL/min/mg; therefore, certain compounds have their clearances labeled as ≤5 μL/min/mg.

[4] = tested on: malignant breast tumors; conditions: treated mice, cited from earlier work

Compound | EC50 [1] [nM] | also measured
COCCn1cccc(-c2cc(NCc3ccc(Cl)s3)n(C(=O)C(C)(C)C)n2)c1=O [Compound 7, 3-(5-{[(5-chlorothiophen-2-yl)methyl]amino}-1-(2,2-dimethylpropanoyl)-1H-pyrazol-3-yl)-1-(2-methoxyethyl)-1,2-dihydropyridin-2-one] | 850 to 970 | half-life at 20 µM [2]: ≥ 5 h; microsomal CLint at 1 µM [3]: 290 µL/min/mg
CCCCCCOC(=O)N=C(N)c1ccc(NCc2nc3cc(C(=O)N(CCC(=O)OCC)c4ccccn4)ccc3n2C)cc1 [dabigatran etexilate] | – | reduction in tumor volume ([4]; at 4 weeks): 50%; reduction of tumor cells in the blood and liver micrometastases [4]: 50-60%
CC(C)(C)C(=O)n1nc(-c2cccn(CC(F)(F)C(=O)O)c2=O)cc1NCc1ccc(Cl)s1 [Compound 6, 3-[3-(5-{[(5-chlorothiophen-2-yl)methyl]amino}-1-(2,2-dimethylpropanoyl)-1H-pyrazol-3-yl)-2-oxo-1,2-dihydropyridin-1-yl]-2,2-difluoropropanoic acid] | 5400 | half-life at 20 µM [2]: 0.117 h; microsomal CLint at 1 µM [3]: 9 µL/min/mg
CCOC(=O)CCn1cccc(-c2cc(NCc3ccc(Cl)s3)n(C(=O)C(C)(C)C)n2)c1=O [Compound 15, ethyl 3-[3-(5-{[(5-chlorothiophen-2-yl)methyl]amino}-1-(2,2-dimethylpropanoyl)-1H-pyrazol-3-yl)-2-oxo-1,2-dihydropyridin-1-yl]propanoate] | 2900 | –
CC(C)(CO)C(=O)n1nc(-c2cccn(CCC(=O)O)c2=O)cc1NCc1ccc(Cl)s1 [Compound 10, 3-[3-(5-{[(5-chlorothiophen-2-yl)methyl]amino}-1-(3-hydroxy-2,2-dimethylpropanoyl)-1H-pyrazol-3-yl)-2-oxo-1,2-dihydropyridin-1-yl]propanoic acid] | 1700 to 10000 | half-life at 20 µM [2]: 1.17 h; microsomal CLint at 1 µM [3]: 4 µL/min/mg
CC(C)[C@H](NC(=O)OC(C)(C)C)C(=O)OCOC(=O)CCn1cccc(-c2cc(NCc3ccc(Cl)s3)n(C(=O)C(C)(C)C)n2)c1=O [Compound 21, ({3-[3-(5-{[(5-chlorothiophen-2-yl)methyl]amino}-1-(2,2-dimethylpropanoyl)-1H-pyrazol-3-yl)-2-oxo-1,2-dihydropyridin-1-yl]propanoyl}oxy)methyl (2S)-2-{[(tert-butoxy)carbonyl]amino}-3-methylbutanoate] | 4800 | –
C=CCOC(=O)CCn1cccc(-c2cc(NCc3ccc(Cl)s3)n(C(=O)C(C)(C)C)n2)c1=O [Compound 16, prop-2-en-1-yl 3-[3-(5-{[(5-chlorothiophen-2-yl)methyl]amino}-1-(2,2-dimethylpropanoyl)-1H-pyrazol-3-yl)-2-oxo-1,2-dihydropyridin-1-yl]propanoate] | 1900 | –

Continued, in another order:

EC50 [1] [nM] | Compound | also measured
2400 | [2H]C([2H])(Nc1cc(-c2cccn(CCC(=O)O)c2=O)nn1C(=O)C(C)(C)C)c1ccc(Cl)s1 [Compound 24, 3-[3-(5-{[(5-chlorothiophen-2-yl)(2H2)methyl]amino}-1-(2,2-dimethylpropanoyl)-1H-pyrazol-3-yl)-2-oxo-1,2-dihydropyridin-1-yl]propanoic acid] | –
1200 | CC(=O)OCCOC(=O)CCn1cccc(-c2cc(NCc3ccc(Cl)s3)n(C(=O)C(C)(C)C)n2)c1=O [Compound 17, 2-(acetyloxy)ethyl 3-[3-(5-{[(5-chlorothiophen-2-yl)methyl]amino}-1-(2,2-dimethylpropanoyl)-1H-pyrazol-3-yl)-2-oxo-1,2-dihydropyridin-1-yl]propanoate] | –
1900 | [2H]C([2H])(C(=O)O)C([2H])([2H])n1cccc(-c2cc(NCc3ccc(Cl)s3)n(C(=O)C(C)(C)C)n2)c1=O [Compound 22, 3-[3-(5-{[(5-chlorothiophen-2-yl)methyl]amino}-1-(2,2-dimethylpropanoyl)-1H-pyrazol-3-yl)-2-oxo-1,2-dihydropyridin-1-yl](2H4)propanoic acid] | –
2400 | Cc1nc(C)c(COC(=O)CCn2cccc(-c3cc(NCc4ccc(Cl)s4)n(C(=O)C(C)(C)C)n3)c2=O)nc1C [Compound 20, (3,5,6-trimethylpyrazin-2-yl)methyl 3-[3-(5-{[(5-chlorothiophen-2-yl)methyl]amino}-1-(2,2-dimethylpropanoyl)-1H-pyrazol-3-yl)-2-oxo-1,2-dihydropyridin-1-yl]propanoate] | –
1300 | CC(=O)OC(C)OC(=O)CCn1cccc(-c2cc(NCc3ccc(Cl)s3)n(C(=O)C(C)(C)C)n2)c1=O (stereo not shown) [Compound 18, 1-(acetyloxy)ethyl 3-[3-(5-{[(5-chlorothiophen-2-yl)methyl]amino}-1-(2,2-dimethylpropanoyl)-1H-pyrazol-3-yl)-2-oxo-1,2-dihydropyridin-1-yl]propanoate] | –
